Like-named read-outs stand apart in the source and are kept apart here.
Target: T1, STAT6 (Homo sapiens, UniProt P42226)
T1 construct: endogenous in cells; host or cells: MOLM-16, KU-812, SKNO1, MB231, L1236
T1 sequence (P42226 1-847): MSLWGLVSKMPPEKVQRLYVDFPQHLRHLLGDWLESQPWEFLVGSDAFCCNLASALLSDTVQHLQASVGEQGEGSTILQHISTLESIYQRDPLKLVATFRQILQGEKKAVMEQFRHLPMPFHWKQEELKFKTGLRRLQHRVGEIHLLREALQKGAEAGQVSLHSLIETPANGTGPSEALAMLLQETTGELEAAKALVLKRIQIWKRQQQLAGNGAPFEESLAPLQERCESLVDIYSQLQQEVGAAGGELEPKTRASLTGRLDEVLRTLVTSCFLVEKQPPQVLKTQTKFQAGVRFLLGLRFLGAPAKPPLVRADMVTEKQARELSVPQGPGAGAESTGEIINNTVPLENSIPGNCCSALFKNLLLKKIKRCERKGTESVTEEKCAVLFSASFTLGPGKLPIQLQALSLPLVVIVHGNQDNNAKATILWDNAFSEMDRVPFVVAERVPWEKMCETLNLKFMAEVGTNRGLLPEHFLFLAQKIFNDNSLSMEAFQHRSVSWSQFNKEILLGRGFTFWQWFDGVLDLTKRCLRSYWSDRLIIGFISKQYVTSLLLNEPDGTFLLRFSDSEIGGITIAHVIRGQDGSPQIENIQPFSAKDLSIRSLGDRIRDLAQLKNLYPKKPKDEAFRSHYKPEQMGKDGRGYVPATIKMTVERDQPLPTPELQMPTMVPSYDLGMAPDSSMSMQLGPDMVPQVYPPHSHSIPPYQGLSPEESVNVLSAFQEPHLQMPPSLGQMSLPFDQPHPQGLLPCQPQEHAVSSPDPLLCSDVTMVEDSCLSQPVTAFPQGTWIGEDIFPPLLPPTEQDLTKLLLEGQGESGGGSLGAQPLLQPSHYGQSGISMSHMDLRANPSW
Experiment: Immunoblotting (Western blot) analysis of STAT6 degradation efficiency of degraders in treated cells
Type: cell-based
In short: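 Degradation read by quantitative near-infrared Western blot: equal protein loads (20-40 μg) from compound-treated versus untreated cells, probed overnight at 4° C. for STAT5 or STAT6 with GAPDH reference. Compound concentrations and exposure times as indicated; cells grown in medium with 10% FBS at 37° C.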

[1] = L1236 cells, read-out: DC50 S6 L1236
[2] = MOLM-16 cells, class symbols, read-out: DC50 S6 MOLM-16

Cc1ncsc1-c1ccc([C@H](C)NC(=O)[C@@H]2C[C@@H](O)CN2C(=O)[C@@H](NC(=O)CCCCCNC(=O)CO[C@H]2C[C@@H](C(=O)N3CCO[C@H](c4ccccc4)C3)N(C(=O)[C@@H](NC(=O)c3cc4cc(C(F)(F)P(=O)(O)O)ccc4s3)C(C)(C)C)C2)C(C)(C)C)cc1 [Compound 429, (difluoro(2-(((S)-1-((2S,4S)-4-(2-((6-(((S)-1-((2S,4R)-4-hydroxy-2-(((S)-1-(4-(4-methylthiazol-5-yl)phenyl)ethyl)carbamoyl)pyrrolidin-1-yl)-3,3-dimethyl-1-oxobutan-2-yl)amino)-6-oxohexyl)amino)-2-oxoethoxy)-2-((R)-2-phenylmorpholine-4-carbonyl)pyrrolidin-1-yl)-3,3-dimethyl-1-oxobutan-2-yl)carbamoyl)benzo[b]thiophen-5-yl)methyl)phosphonic acid]
DC50 [1]: > 10 µM | DC50 [2]: > 10 µM

CC(C)(C)[C@H](NC(=O)C1=Cc2cc(C(F)(F)P(=O)(O)O)ccc2C1)C(=O)N1CSN(C(=O)CC(=O)NCC#Cc2cccc3c2C(=O)N(C2CCC(=O)NC2=O)C3=O)C[C@H]1C(=O)N1CCC[C@H](c2ccccc2)C1 (stereo partly drawn) [Compound 521, ((2-(((2S)-1-((4S)-2-(3-((3-(2-(2,6-dioxopiperidin-3-yl)-1,3-dioxoisoindolin-4-yl)prop-2-yn-1-yl)amino)-3-oxopropanoyl)-4-((R)-3-phenylpiperidine-1-carbonyl)-1,2,5-thiadiazinan-5-yl)-3,3-dimethyl-1-oxobutan-2-yl)carbamoyl)-1H-inden-5-yl)difluoromethyl)phosphonic acid]
DC50 [2]: > 10 µM

Cc1ncsc1-c1ccc([C@H](C)NC(=O)[C@@H]2C[C@@H](O)CN2C(=O)[C@@H](NC(=O)CCCCCCNC(=O)CC(=O)N2CCN(C(=O)[C@@H](NC(=O)c3cc4cc(C(F)(F)P(=O)(O)O)ccc4s3)C(C)(C)C)[C@H](C(=O)N3CCC[C@H](c4ccccc4)C3)C2)C(C)(C)C)cc1 [Compound 457, (difluoro(2-(((S)-1-((S)-4-(3-((7-(((S)-1-((2S,4R)-4-hydroxy-2-(((S)-1-(4-(4-methylthiazol-5-yl)phenyl)ethyl)carbamoyl)pyrrolidin-1-yl)-3,3-dimethyl-1-oxobutan-2-yl)amino)-7-oxoheptyl)amino)-3-oxopropanoyl)-2-((R)-3-phenylpiperidine-1-carbonyl)piperazin-1-yl)-3,3-dimethyl-1-oxobutan-2-yl)carbamoyl)benzo[b]thiophen-5-yl)methyl)phosphonic acid]
DC50 [1]: > 10 µM | DC50 [2]: > 10 µM

Cc1ncsc1-c1ccc([C@H](C)NC(=O)[C@@H]2C[C@@H](O)CN2C(=O)[C@@H](NC(=O)CCCCCNC(=O)CC(=O)N2CCN(C(=O)[C@@H](NC(=O)c3cc4cc(C(F)(F)P(=O)(O)O)ccc4s3)C(C)(C)C)[C@H](C(=O)N3CCC[C@H](c4ccccc4)C3)C2)C(C)(C)C)cc1 [Compound 456, (difluoro(2-(((S)-1-((S)-4-(3-((6-(((S)-1-((2,4R)-4-hydroxy-2-(((S)-1-(4-(4-methylthiazol-5-yl)phenyl)ethyl)carbamoyl)pyrrolidin-1-yl)-3,3-dimethyl-1-oxobutan-2-yl)amino)-6-oxohexyl)amino)-3-oxopropanoyl)-2-((R)-3-phenylpiperidine-1-carbonyl)piperazin-1-yl)-3,3-dimethyl-1-oxobutan-2-yl)carbamoyl)benzo[b]thiophen-5-yl)methyl)phosphonic acid]
DC50 [1]: > 10 µM | DC50 [2]: > 10 µM

CC(C)(C)[C@H](NC(=O)c1cc2cc(C(F)(F)P(=O)(O)O)ccc2s1)C(=O)N1CCN(C(=O)CC(=O)NCCCCC#Cc2ccc3c(c2)C(=O)N(C2CCC(=O)NC2=O)C3=O)C[C@H]1C(=O)N1CCC[C@H](c2ccccc2)C1 (stereo partly drawn) [Compound 528, ((2-(((2S)-1-((2S)-4-(3-((6-(2-(2,6-dioxopiperidin-3-yl)-1,3-dioxoisoindolin-5-yl)hex-5-yn-1-yl)amino)-3-oxopropanoyl)-2-((R)-3-phenylpiperidine-1-carbonyl)piperazin-1-yl)-3,3-dimethyl-1-oxobutan-2-yl)carbamoyl)benzo[b]thiophen-5-yl)difluoromethyl)phosphonic acid]
DC50 [2]: > 10 µM

— patent publication US20230295197A1, “STAT5 and STAT6 Degraders and Uses Thereof” (REGENTS OF THE UNIVERSITY OF MICHICAN, priority 2022, published 2023)
